In patent US12590951B2, “Culture medium and culture method for primary cells of intestinal cancer” (PRECEDO PHARMACEUTICALS CO., LTD, priority 2021, dated 2026):
Read-outs that look alike come from different tables or passages of the source.

Assays:
[1] = tested on: primary cells of intestinal cancer; test: Effect of single additives in Basic Medium on proliferation of primary cells of intestinal cancer (cell count); format: cell-based, human; design: key: +: compared with the Basic Medium, the medium added with the additive(s) has the effect of promoting the proliferation of primary cells of intestinal cancer isolated from intestinal cancer tissue in at least two cases; −: the medium added with the additive(s) has the effect of inhibiting the proliferation of primary cells of intestinal cancer isolated from intestinal cancer tissue in at least one case; ∘: the medium added with the additive(s) has no significant effect on the proliferation of primary cells of intestinal cancer isolated from intestinal cancer tissue in at least two cases
Procedure: First, Basic Medium was prepared. The formulation of Basic Medium is: DMEM/F12 medium (purchased from Corning)+5 μM Y27632 (purchased from MCE)+5% (v/v) fetal bovine serum (purchased from Excell Bio)+100 μg/mL Primocin (purchased from InvivoGen, 0.2% (v/v), the concentration of commercial product is 50 mg/ml).
Different types of additives (see Table 1) were added to the Basic Medium to prepare the culture mediums for primary cells of intestinal cancer containing different components.
The culture mediums of different components as shown in Table 1 were added into a 48-well plate at a volume of 1 mL/well. Primary cells of intestinal cancer isolated from two cases of intestinal cancer tissues (numbered OE0042 and OE(E)003) according to the above step (2) were inoculated into the 48-well culture plate at a cell density of 3×10^4 cells/well, and were cultured at 37° C., under 5% CO2 concentration. After culturing for 7-10 days, when the cells grew to 85%, the culture medium was discarded, and 100 μL/well of 0.05% trypsin (purchased from Gibco) was used to rinse the cells once. After the trypsin was removed, 200 μL of 0.05% trypsin was added to each well. The plate was then placed in a 37° C., 5% CO2 incubator for 10 minutes, and the cells were observed under a microscope (CNOPTEC, BDS400), showing that the cells had completely digested. 300 μL of DMEM/F12 medium containing 10% serum (Excell Bio, FND500) was added to stop the digestion. 20 μL of the resultant was added into a cell counting plate (Countstar, specification: 50 pieces/box), and the total number of cells was counted with a cell counter (Countstar, IC1000). Specifically, Basic Medium without any additives was used as an experimental control, and the experimental results are shown in Table 1.

[2] = tested on: primary cells of intestinal cancer; test: Effect of different concentrations of factors in CA-1 medium on proliferation (ratio of cell number to Blank Control); format: cell-based, human
[3] = additive at the final concentration in Basic Medium, samples OE0042 and OE(E)003, 7-10 days, compared with Basic Medium
[4] = according to proliferation ratio vs Blank Control, FIGS. 2A-2J

## C[C@]12CCC(=O)C=C1CC[C@@H]1[C@@H]2[C@@H](O)C[C@@]2(C)[C@H]1CC[C@]2(O)C(=O)CO [hydrocortisone, reference compound]
[1]; [3]
  Level of promoting cell proliferation: ∘

## epidermal growth factor: medium additive, growth factor from R&D (NSDSECPLSHDGYCLHDGVCMYIEALDKYACNCVVGYIGERCQYRDLKWWELR; Epidermal growth factor; UniProt P01133 971-1023, looked up)
[1]; [3]
  Level of promoting cell proliferation: ∘

## NC(=O)c1cccnc1 [nicotinamide, reference compound]
[1]; [3]
  Level of promoting cell proliferation: +
[2]; [4]
  amount in the culture medium, even more preferably: 4 mM
  amount in the culture medium, more preferably: 4 to 8 mM
  amount in the culture medium, preferably: 2 to 8 mM

## insulin: medium additive from Peprotech
[1]; [3]
  Level of promoting cell proliferation: +
[2]; [4]
  amount in culture medium, even more preferably: 2 µg/mL
  amount in culture medium, more preferably: 1 to 2 µg/mL
  amount in culture medium, preferably: 0.5 to 4 µg/mL

## Cc1cccc(-c2nn(C(=S)Nc3ccccc3)cc2-c2ccnc3ccccc23)n1 [A8301, reference compound]
[1]; [3]
  Level of promoting cell proliferation: −
[2]; [4]
  amount in culture medium, more preferably: 200 nM

## Oc1ccc(-c2nc(-c3ccncc3)c(-c3ccc(F)cc3)[nH]2)cc1 [SB202190, reference compound]
[1]; [3]
  Level of promoting cell proliferation: ∘

## CCCCC[C@H](O)/C=C/[C@H]1[C@H](O)CC(=O)[C@@H]1C/C=C\CCCC(=O)O [prostaglandin E2, reference compound]
[1]; [3]
  Level of promoting cell proliferation: −

## hepatocyte growth factor: medium additive, growth factor from Peprotech
[1]; [3]
  Level of promoting cell proliferation: ∘

## insulin-like growth factor-1: medium additive, growth factor from R&D
[1]; [3]
  Level of promoting cell proliferation: +
[2]; [4]
  amount in culture medium, more preferably: 0.045 µg/mL
  amount in culture medium, preferably: 0.005 to 0.405 µg/mL

## basic fibroblast growth factor: medium additive, growth factor from R&D
[1]; [3]
  Level of promoting cell proliferation: −

## TGF-β1: medium additive from R&D
[1]; [3]
  Level of promoting cell proliferation: −

## C[C@@H](N)[C@H]1CC[C@H](C(=O)Nc2ccncc2)CC1 [Y-27632, reference compound]
[2]; [4]
  amount in culture medium, even more preferably: 5 µM
  amount in culture medium, preferably: 2.5 to 40 µM

## NC(=O)CC[C@H](N)C(=O)O [glutamine, reference compound]
[1]; [3]
  Level of promoting cell proliferation: −

## cholera toxin
[1]
  Level of promoting cell proliferation: +
[2]
  amount in culture medium, even more preferably: 0.005 µg/mL
